Ends that are not written are not given here. Peptide text beside a SMILES is read from it. * marks the point of attachment. For = O=C*

We go through three compounds from US20030050249A1, “Complexes of alpha-6 integrin subunits with small peptides and methods for treating indications resulting from modulation of integrin-mediated responses by altering signal transduction” (priority 2000, published 2003).

The test system of series [1] is normal human peripheral blood mononuclear cells. Nature of the series: Effects of HK-X on cultures of human peripheral blood mononuclear cells with and without Con A (cell cycle, viability, apoptosis). To be noted: versus vehicle. The series is classed as cell-based. The method, then:
The effects of addition of HK-X (as compared to a control of vehicle without peptide) to cultures of normal human peripheral blood mononuclear cells with and without the plant lectin, Con A, were also evaluated. […] However, HK-X induced apoptosis in a significant population of cells (˜30%) stimulated with Con A as determined by the presence of a sub G0/G1 population in the DNA profile. In cultures where the cells were not stimulated to enter the cell cycle (without Con A), the levels of sub G0/G1 were similar in HK-X treated and control cultures (<7%).

The conditions of series [2]: mouse, in vivo.
A further series concerns inflamed lung. To be noted: mouse, in vivo.
Series [3] in a line: HK-X administration to normal mice.
Another series has as its target T1, FPR (Homo sapiens, UniProt P21462).
T1 sequence (P21462 1-350): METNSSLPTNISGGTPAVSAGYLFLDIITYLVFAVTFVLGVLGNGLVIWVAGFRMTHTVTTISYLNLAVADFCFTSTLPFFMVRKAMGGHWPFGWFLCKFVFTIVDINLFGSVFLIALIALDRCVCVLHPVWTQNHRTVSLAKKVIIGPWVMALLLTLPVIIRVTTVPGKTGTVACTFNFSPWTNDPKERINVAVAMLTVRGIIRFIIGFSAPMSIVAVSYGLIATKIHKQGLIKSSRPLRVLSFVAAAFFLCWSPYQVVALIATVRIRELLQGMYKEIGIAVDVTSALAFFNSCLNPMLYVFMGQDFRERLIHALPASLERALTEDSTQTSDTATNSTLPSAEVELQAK
As to conditions: compared with FMLP; cited from earlier work.

Series [4] relates to rat peritoneal mast cells. Nature of the series: Binding of FITC-HK-X to rat peritoneal mast cells. As to conditions: freshly isolated mast cells, FIG. 3. The procedure:
Rat peritoneal mast cells were isolated by infusion of 35 ml of Tyrode's Solution into the peritoneal cavity of anesthetized rats. The rats were then sacrificed by injection of an overdose of anesthetic. The peritoneal cells were harvested, placed into 15 ml centrifuge tubes. The cells were pelleted by centrifugation at 250×g for 10 min at room temperature.
Other cell types were also tested for the ability to bind FITC labeled HK-X on their cell surface.

Description for inflamed lung: In this model HK-X was administered intranasally for up to 3 months.

In the case of `CSCC[C@H](NC=O)C(=O)N[C@@H](CC(C)C)C(=O)N[C@@H](Cc1ccccc1)C(=O)N[C@@H](Cc1ccccc1)C(=O)O` [HK-X, f-Met-Leu-Phe-Phe] (For-MLFF-OH), the cell viability result in series [1] is reported as “did not effect cell viability”. In addition, the toxicity entry in series [2] is “no discernable toxicity”. In addition, in the series with inflamed lung, the “pathological changes in the alveoli, bronchi or vessels” value is “no pathological changes”. The “distribution or numbers of nucleated cells of the peripheral blood” value in series [3] (10 μg to 1000 μg per adult mouse) was “no alterations”. In series [3] (mice immunized with sheep red cells, HK-X prior to and after immunization), the “numbers of antibody forming cells (PFC), IgM and IgG” value is given as “no alteration”. In series [3] (normal mice), the “Liver and kidney function” value is listed as “unaffected”; the “production of required cytokines” value is on record as “did not down regulate”; the “proliferation and differentiation of hematopoietic precursors of neutrophils, basophils, monocytes and lymphocytes” value is given as “did not negatively affect”.

Regarding “Met-Met-Trp-Leu-Leu (MMWLL; printed: Met-Met-Trp-Leu-Leu)”, the neutrophil function activity entry with FPR was “comparable in neutrophil function activity to FMLP”.

“FITC-HK-X: fluoresceinated HK-X (f-Met-Leu-Phe-Phe) (MLFF; not fully specified; also: FITC label, site not given here)”: in series [4], the “numbers of FITC-HK-X bound” value was “roughly equivalent to that of human eosinophils”.
